# From US5436246A, “Serotonin receptor agents” (priority 1993, dated 1995)
# Where a name gives a salt, the structure may show the parent alone. Read-outs that look alike come from different tables or passages of the source.
# Columns and labels:
# 5HT1A receptor = target: T1, 5HT1A receptor (Rattus norvegicus, UniProt P19327); test: 5HT1A receptor binding affinity (procedure of Gozlan et al.)
# T1 sequence (P19327 1-422): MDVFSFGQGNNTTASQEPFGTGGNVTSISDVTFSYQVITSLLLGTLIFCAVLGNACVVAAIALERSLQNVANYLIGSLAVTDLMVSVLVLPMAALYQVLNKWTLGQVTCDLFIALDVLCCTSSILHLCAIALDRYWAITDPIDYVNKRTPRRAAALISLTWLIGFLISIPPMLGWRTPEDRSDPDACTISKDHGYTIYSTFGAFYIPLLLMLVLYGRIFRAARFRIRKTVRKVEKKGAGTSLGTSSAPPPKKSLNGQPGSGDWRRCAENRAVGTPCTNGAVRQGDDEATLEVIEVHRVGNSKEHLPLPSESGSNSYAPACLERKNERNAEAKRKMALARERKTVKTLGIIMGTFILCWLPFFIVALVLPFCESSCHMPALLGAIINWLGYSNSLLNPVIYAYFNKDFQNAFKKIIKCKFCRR
# Description: In the following examples, the compounds binding affinity for both the 5HT1A receptor and 5HT1D receptors is reported. The compounds affinity for the 5HT1D site was determined by the binding procedure of Peroutka et al as reported in European Journal of Pharmacology, Vol. 163 at pages 133-166 (1989). The compounds affinity for the 5HT1A receptor was determined by the procedure of Gozlan et al., as reported in Nature, Volume 305, at pages 140-142 (1983). Where multiple determinations of the binding affinity have been performed, the average is given followed by the number of determinations in parentheses. Also, the PA2 value for the saphenous vein preparation as described in this application is given, followed by the intrinsic (agonist) activity in parentheses, expressed as a percentage. [drawing 10] […]
# [1] = acetic acid writhing test (analgesic effect); format: in vivo; settings: Mus musculus, sc, 0.5 h; mice, subcutaneous, 30 minutes before acetic acid i.p. (0.25% v/v, 0.4 ml)
# Description: Eide, Neuropharm. 31, 541 (1992). […] One such model is the acetic acid writhing test. In this test, a group containing from 5-10 mice are administered the test compound subcutaneously. Thirty minutes after administration of the test compound, the mice are administered acetic acid intraperitoneally (0.25 % v/v, 0.4 ml). The mice are then observed for squirming and writhing. Analgesics block this squirming and writhing.
# 5HT1D receptor = target: T2, 5HT1D receptor (Bos taurus, UniProt F1MGM3); test: 5HT1D receptor binding affinity (procedure of Peroutka et al.)
# T2 construct: from tissue
# T2 sequence (F1MGM3 1-403): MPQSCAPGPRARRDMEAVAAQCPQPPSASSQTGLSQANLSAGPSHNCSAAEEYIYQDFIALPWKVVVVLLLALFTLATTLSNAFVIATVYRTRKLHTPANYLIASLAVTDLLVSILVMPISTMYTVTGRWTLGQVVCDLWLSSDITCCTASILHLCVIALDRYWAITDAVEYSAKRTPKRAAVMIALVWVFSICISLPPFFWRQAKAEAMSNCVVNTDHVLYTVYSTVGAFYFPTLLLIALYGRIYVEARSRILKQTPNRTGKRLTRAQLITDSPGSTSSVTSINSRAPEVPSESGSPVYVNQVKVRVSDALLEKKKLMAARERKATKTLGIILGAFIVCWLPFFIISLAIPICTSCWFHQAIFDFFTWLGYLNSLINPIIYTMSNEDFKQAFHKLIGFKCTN
# Description: The compounds affinity for the 5HT1D site was determined by the binding procedure of Peroutka et al as reported in European Journal of Pharmacology, Vol. 163 at pages 133-166 (1989). […] Where multiple determinations of the binding affinity have been performed, the average is given followed by the number of determinations in parentheses.
# 5-HT1D receptors = 5-HT1D receptors (Canis lupus familiaris, UniProt P79250); design: species or system dog (canine); settings: for Emax: dog, read-out: intrinsic (agonist) activity, saphenous vein preparation
# Chain of 5-HT1D receptors (P79250 whole entry): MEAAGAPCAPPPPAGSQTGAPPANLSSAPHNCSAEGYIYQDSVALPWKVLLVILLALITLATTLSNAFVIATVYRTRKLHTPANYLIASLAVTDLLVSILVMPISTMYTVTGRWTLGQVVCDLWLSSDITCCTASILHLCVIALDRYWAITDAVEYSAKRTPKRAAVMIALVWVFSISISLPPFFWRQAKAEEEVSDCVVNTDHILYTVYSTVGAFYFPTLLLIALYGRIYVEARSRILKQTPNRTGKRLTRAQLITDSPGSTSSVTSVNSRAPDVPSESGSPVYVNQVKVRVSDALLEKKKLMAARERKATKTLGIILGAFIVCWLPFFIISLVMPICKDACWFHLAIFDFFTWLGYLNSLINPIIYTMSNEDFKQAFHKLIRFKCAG
# Description: In the following examples, the compounds binding affinity for both the 5HT1A receptor and 5HT1D receptors is reported. The compounds affinity for the 5HT1D site was determined by the binding procedure of Peroutka et al as reported in European Journal of Pharmacology, Vol. 163 at pages 133-166 (1989). The compounds affinity for the 5HT1A receptor was determined by the procedure of Gozlan et al., as reported in Nature, Volume 305, at pages 140-142 (1983). Where multiple determinations of the binding affinity have been performed, the average is given followed by the number of determinations in parentheses. Also, the PA2 value for the saphenous vein preparation as described in this application is given, followed by the intrinsic (agonist) activity in parentheses, expressed as a percentage. [drawing 10]
# We have used canine saphenous vein for studying 5-HT1D receptors which is similar, although not totally identical, to human coronary 5-HT1D receptors (see Humphrey, P. P. A., Feniuk, W., Perren, M. J., Connor, H. E., Oxford, A. W., Coates, I. H. and Butina, D.: GR43175, a selective agonist for the 5-HT1 -like receptor in dog isolated saphenous vein, Br. J. Pharmacol. 94:1123-1132, 1988; Kaumann, A. J.: Human heart 5-HT receptors, Second international symposium on serotonin, from cell biology to pharmacology and therapeutics, Houston, Sep. 15-18, 1992).
# Mongrel dogs weighing 12-18 kg were killed by an intravenous injection of an overdose of sodium pentobarbitol. Saphenous veins were isolated, removed, cleaned of surrounding connective tissue, and cut into helical strips in a dish containing Krebs-Henseleit solution with the following composition in mM: NaCl, 110.0; KCl, 4.8; CaCl2, 2.5; KH2 PO4, 1.2; EDTA(NaEDTA), 0.027; and was constantly bubbled with 95% O2 -5% CO2. Unless otherwise specified, the endothelium of the […] was removed by rubbing with a metal rod. The intactness or absence of functional endothelium was checked by the presence or absence of a relaxant effect of acetycholine (10^-5 M) in phenylephrine-contracted tissues (see Furchgott, R. F. and Zawadzki, J. V.: The obligatory role of endothelial cells in the relaxtion of arterial smooth muscle by acetycholine, Nature 288:373-376, 1980). Each muscle strip (3×30 mm) was set up in a tissue bath at 37° C. and loaded with 2 gram tension. Contractility of the tissues was measured isometrically with a Grass FT03 force-displacement transducer and recorded on a Strip chart recorder. The tissues were allowed to stabilize for 2 hours before the experiment was started, during which time they were washed repeatedly. Tissues were contracted with 3.162×10^-6 M phenylephrine and 40 mM KCl, which produced 60-70% of their maximum contractile responses, to condition the tissue. 5-HT dose response experiment was conducted. Test compounds were then incubated with the tissue before a second 5-HT dose response experiment was performed. Data are expressed as the pA2 value, the negative logarithm of the molar concentration of antagonist which produced a 2 fold shift in ED50 values of 5-HT dose response curves (see Van Rossum, J. M.: Cumulative dose-response curve: Technique for the making of dose-response curves in isolated organs and the evaluation of drug parameters, Arch. Int. Pharmacodyn. Ther. 143:299-330, 1963).
# [2] = negative log molar concentration of antagonist producing 2 fold shift in ED50 of 5-HT dose response curves, read-out: pA2 (blocking of 5-HT1-like-mediated contraction in canine saphenous vein) (converted)
# [3] = average of multiple determinations where number in parentheses is given, read-out: IC50 (5HT1A Binding Affinity)
# [4] = canine saphenous vein, printed in parentheses after pA2
# [5] = average of multiple determinations where number in parentheses is given, read-out: IC50 (5HT1D Binding Affinity)
IC50 (5HT1A receptor; [3]) [nM],IC50 (5HT1D receptor; [5]) [nM],Compound,IC50 (5HT1A receptor) [nM],IC50 (5HT1D receptor) [nM],Emax (5-HT1D receptors) [%],Kb (5-HT1D receptors; [2]) [nM],further results
,,"Cl.OCc1cc2c(N3CCN(CCc4ccccc4)CC3)cccc2s1 [Example 7, 4[4(2-phenylethyl)-1-piperazinyl]-benzo[b]thiophene-2-methanol monohydrochloride]",0.6,2.4,,,ED50 [1]: 0.61 mg/kg
,,"CNC(=O)c1cc2c(N3CCN(CCc4ccccc4)CC3)cccc2s1 [Example 10, 4-[4-(2-phenylethyl)-1-piperazinyl]-benzo[b]thiophene-2-(N-methyl)-carboxamide monohydrochloride]",1,1,25,0.0251,
2.3,3,"CN(C)C(=O)c1cc2c(N3CCN(CCc4ccccc4)CC3)cccc2s1 [Example 11, 4-[4-(2-phenylethyl)-1-piperazinyl]-benzo[b]thiophene-2-(N,N-dimethyl)-carboxamide monohydrochloride]",,,,0.977,Emax (5-HT1D receptors; [4]): 2%
85,220,"O=C(Nc1ccccc1)c1cc2c(N3CCN(CCc4ccccc4)CC3)cccc2s1 [Example 12, 4-[4-(2-phenylethyl)-1-piperazinyl]-benzo[b]thiophene2-(N-phenyl)-carboxamide monohydrochloride]",,,,18.2,Emax (5-HT1D receptors; [4]): 0%
27,31,"O=C(NCc1ccccc1)c1cc2c(N3CCN(CCc4ccccc4)CC3)cccc2s1 [Example 13, 4-[4-(2-phenylethyl)-1-piperazinyl]-benzo[b]thiophene-2-(N-phenylmethyl)-carboxamide monohydrochloride]",,,,1.74,Emax (5-HT1D receptors; [4]): 0%
1,4.5,"NC(=O)c1cc2c(N3CCN(CCCc4ccccc4)CC3)cccc2s1 [Example 17, 4-[4-(3-phenylpropyl)-1-piperazinyl]-benzo[b]thiophene-2-carboxamide monohydrochloride]",,,,16.6,
53,411,"CCOC(=O)c1cc2c(N3CCN(CCc4ccc(Cl)cc4)CC3)cccc2s1 [Example 18, ethyl-4-[4-[2-(4-chlorophenyl)ethyl]-1-piperazinyl]-benzo[b]thiophene-2-carboxylate monohydrochloride]",,,,309,
,,"N#Cc1cc2c(N3CCN(CCc4ccc(Cl)cc4)CC3)cccc2s1 [Example 20, 4-[4-[2-(4-chlorophenyl)ethyl]-1-piperazinyl]-benzo[b]thiophene-2-nitrile monohydrochloride]",13,31,34,,Kb (5-HT1D receptors): 42.7 nM
,,"N#Cc1cc2c(N3CCN(CCc4ccc(F)cc4)CC3)cccc2s1 [Example 24, 4-[4-[2-(4-fluorophenyl)ethyl]-1-piperazinyl]-benzo[b]thiophene-2-nitrile monohydrochloride]",10,21,9,,Kb (5-HT1D receptors): 6.76 nM
,,"COCc1cc2c(N3CCN(CCc4ccccc4)CC3)cccc2s1 [Example 37, 4-[4-(2-phenylethyl)-1-piperazinyl]-benzo[b]thiophene-2-(O-methyl)-methanol hydrochloride]",5,9,0,9.33,
2.4,16,"CON(C)C(=O)c1cc2c(N3CCN(CCc4ccccc4)CC3)cccc2s1 [Example 40, 4-[4-(2-phenylethyl)-1-piperazinyl]-benzo[b]thiophene-2-(N-methyl-N-methoxy)-carboxamide hydrochloride]",,,,3.16,Emax (5-HT1D receptors; [4]): 3%
,,"CC(C)(O)c1cc2c(N3CCN(CCc4ccccc4)CC3)cccc2s1 [Example 41, 2-[4-[4-(2-phenylethyl)-1-piperazinyl]benzo[b]thiophene-2-]-(2-propanol) hydrochloride hemihydrate]",4,16,16,36.3,
,,"CC(=O)c1cc2c(N3CCN(CCc4ccccc4)CC3)cccc2s1 [Example 42, 1-[4-(4-phenethyl-piperazin-1-yl)-benzo[b]thiophen-2-yl]ethanone hydrochloride]",,22,1,,Kb (5-HT1D receptors): 13.5 nM
,,"COCc1cc2c(N3CCN(CCc4ccc(F)cc4)CC3)cccc2s1 [Example 46, 4-[4-(2-(4-fluorophenyl)-ethyl)-1-piperazinyl]benzo [b]thiophene 2-methoxymethyl hydrochloride, 0.2 hydrate]",,,5,,"IC50 (5HT1A receptor; read-out: IC50 (5HT1A Binding Affinity), average of multiple determinations where number in parentheses is given): 4 nM; pA2 (blocking of 5-HT1-like-mediated contraction in canine saphenous vein) (5-HT1D receptors; negative log molar concentration of antagonist producing 2 fold shift in ED50 of 5-HT dose response curves): 7.98; IC50 (5HT1D receptor; read-out: IC50 (5HT1D Binding Affinity), average of multiple determinations where number in parentheses is given): 17 nM"

Compound,IC50 (5HT1A receptor; [3]) [nM],IC50 (5HT1D receptor; [5]) [nM],IC50 (5HT1A receptor) [nM],IC50 (5HT1D receptor) [nM],Emax (5-HT1D receptors) [%],Kb (5-HT1D receptors; [2]) [nM],further results
"CCOC(=O)c1cc2c(N3CCN(CCc4ccc(F)cc4)CC3)cccc2s1 [Example 22, ethyl-4-[4-[2-(4-fluorophenyl)ethyl]-1-piperazinyl]-benzo[b]thiophene-2-carboxylate monohydrochloride]",7.4,120,,,0,29.5,
"CCCN1CCN(c2cccc3sc(C(=O)OCC)cc23)CC1 [Example 34, Ethyl 4-[(4-propyl)-1-piperazinyl]benzo[b]thiophene-2-carboxylate hydrochloride]",104,416,,,12,166,
"O=C(c1cc2c(N3CCN(CCc4ccccc4)CC3)cccc2s1)N1CCCCC1 [Example 56, [4-(4-phenethyl-piperazin-1-yl)-benzo[b]thiophen-2-yl]-piperidin-1-yl methanone hydrochloride]",,135,,,2,112,
"O=C(c1cc2c(N3CCN(CCc4ccccc4)CC3)cccc2s1)N1CCCC1 [Example 57, [4-(4-phenethyl-piperazin-1-yl)-benzo[b]thiophen-2-yl]-pyrrolidin-1-yl methanone hydrochloride]",,25,,,0,4.27,
